Assay results: ChEMBL document CHEMBL5385921, “Kagimminols A and B, Cembrene-Type Diterpenes from an Okeania sp. Marine Cyanobacterium” (J Nat Prod, 2024)
Counter-ions that a name gives are not always drawn.

Tests used:
[1] = tested on: Trypanosoma brucei rhodesiense; assay: Antitrypanosomal activity against blood stream form of Trypanosoma brucei rhodesiense IL-1501 assessed as growth inhibition incubated for 69 hrs by alamar blue staining based microplate fluorescence scanner analysis; format: functional, organism-based; conditions: IL-1501, 69 h
HeLa = assay: Antiproliferative activity against human HeLa cells assessed as inhibition of cell growth incubated for 72 hrs by MTT assay; format: functional, cell-based

| IC50 [1] [µM] | IC50 (HeLa) [µM] | SMILES |
| --- | --- | --- |
| 3.4 | > 30 | CC(=O)O[C@H]1C[C@](C)(O)C(=O)/C=C(\O)[C@](C)(O)CCC/C(C)=C/C=C\1C(C)C |
| 10 | > 30 | C/C1=C\C=C(\C(C)C)[C@@H](O)C[C@](C)(O)C(=O)CC/C(C)=C/CC1 |
|  | 0.5 | COc1cccc2c1C(=O)c1c(O)c3c(c(O)c1C2=O)C[C@@](O)(C(=O)CO)C[C@@H]3O[C@H]1C[C@H](N)[C@H](O)[C@H](C)O1 [DOXORUBICIN HYDROCHLORIDE] |
